Test results published in patent US11697648B2, “Fused pyrimidine pyridinone compounds as JAK inhibitors” (THERAVANCE BIOPHARMA R&D IP, LLC, priority 2019, dated 2023).

Biological target: JAK3 (Homo sapiens (Human), UniProt P52333)
Assay: Biochemical JAK3 kinase assay (LanthaScreen)
Details: not given
Procedure, shortened: (§1)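 GST-JAK + GFP-STAT1 peptide, HEPES pH 7.5/MgCl2/EGTA/Brij-35 buffer; cpd preincubation 1 h RT; ATP start, 1 h RT; stop with 10 mM EDTA + 2 nM Tb-anti-pSTAT1; TR-FRET 520/495. 4-parameter IC50 → pKi (Cheng-Prusoff).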

Chain of JAK3 (P52333 whole entry): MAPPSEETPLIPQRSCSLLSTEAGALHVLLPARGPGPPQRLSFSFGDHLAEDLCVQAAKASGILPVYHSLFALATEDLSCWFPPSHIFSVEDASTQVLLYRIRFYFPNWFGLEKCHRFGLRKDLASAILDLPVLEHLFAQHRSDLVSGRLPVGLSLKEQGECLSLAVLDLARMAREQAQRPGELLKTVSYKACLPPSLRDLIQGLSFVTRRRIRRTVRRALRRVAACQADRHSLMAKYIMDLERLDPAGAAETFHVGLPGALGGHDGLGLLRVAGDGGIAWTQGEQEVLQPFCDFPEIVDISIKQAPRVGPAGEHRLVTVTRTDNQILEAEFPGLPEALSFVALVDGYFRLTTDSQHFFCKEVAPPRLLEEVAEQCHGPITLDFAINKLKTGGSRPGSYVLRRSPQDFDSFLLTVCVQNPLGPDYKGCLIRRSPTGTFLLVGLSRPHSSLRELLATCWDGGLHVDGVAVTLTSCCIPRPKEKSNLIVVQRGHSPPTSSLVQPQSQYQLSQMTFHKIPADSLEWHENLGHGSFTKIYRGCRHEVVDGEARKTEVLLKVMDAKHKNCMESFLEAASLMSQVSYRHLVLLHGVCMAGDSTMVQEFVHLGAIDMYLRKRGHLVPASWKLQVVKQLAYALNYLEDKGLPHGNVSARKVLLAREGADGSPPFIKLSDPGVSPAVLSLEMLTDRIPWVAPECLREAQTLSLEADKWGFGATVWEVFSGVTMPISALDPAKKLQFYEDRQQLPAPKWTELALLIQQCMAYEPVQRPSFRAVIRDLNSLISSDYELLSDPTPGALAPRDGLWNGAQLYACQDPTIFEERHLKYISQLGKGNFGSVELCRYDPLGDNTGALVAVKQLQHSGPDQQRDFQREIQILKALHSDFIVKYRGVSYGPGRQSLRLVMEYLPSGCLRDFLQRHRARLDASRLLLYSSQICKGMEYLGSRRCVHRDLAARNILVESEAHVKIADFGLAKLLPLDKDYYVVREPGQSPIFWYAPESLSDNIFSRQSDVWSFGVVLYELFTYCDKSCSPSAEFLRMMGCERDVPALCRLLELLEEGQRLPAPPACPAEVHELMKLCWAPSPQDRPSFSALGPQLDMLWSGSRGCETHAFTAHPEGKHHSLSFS

Row | Structure (SMILES) | JAK 3 (pKi)
1 | C=CC(=O)N1CC(CC)(CCn2c(=O)ccc3cnc(Nc4ccc(N5CCN(C(C)=O)CC5)cc4)nc32)C1 [Example 180] | B (B represents pKi value between 9 and 10 (Ki between 1 nM and 0.1 nM))
2 | C=CC(=O)N1CCN(CCn2c(=O)ccc3cnc(Nc4ccc(N5CCN(C(C)=O)CC5)cc4)nc32)[C@@H](CC)C1 [Example 185] | A (A represents a pKi value≥10 (Ki≤0.1 nM))
3 | C=CC(=O)N1CCN(CCn2c(=O)ccc3cnc(Nc4ccc(N5CCN(C(=O)COC)CC5)cc4)nc32)[C@@H](CC)C1 [Example 186] | B (B represents pKi value between 9 and 10 (Ki between 1 nM and 0.1 nM))

Same assay, conditions: selectivity JAK3 over JAK1, difference of pKi

Row | Structure (SMILES) | JAK3 (pKi)-JAK1 (pKi)
4 | C=CC(=O)N1CC(CC)(CCn2c(=O)ccc3cnc(Nc4ccc(N5CCN(C(C)=O)CC5)cc4)nc32)C1 [Example 180] | A (A represents a value of 3 or above)
5 | C=CC(=O)N1CCN(CCn2c(=O)ccc3cnc(Nc4ccc(N5CCN(C(C)=O)CC5)cc4)nc32)[C@@H](CC)C1 [Example 185] | A (A represents a value of 3 or above)
6 | C=CC(=O)N1CCN(CCn2c(=O)ccc3cnc(Nc4ccc(N5CCN(C(=O)COC)CC5)cc4)nc32)[C@@H](CC)C1 [Example 186] | A (A represents a value of 3 or above)

System: Caco-2 cell monolayers
Assay: Caco-2 permeation assay
Assay type: in vitro ADME
Details: 5 μM, A-B direction, with Verapamil (25 μM)
Procedure, shortened: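 Passive A-to-B permeability with P-gp inhibited by verapamil (25 μM); compound at 5 μM, n=2. Both compartments sampled at t0 and t120 and quantified by LC-MS/MS, giving apparent permeability in cm/sec from flux, area and concentration.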

Row | Structure (SMILES) | Caco Kp
7 | C=CC(=O)N1CC(CC)(CCn2c(=O)ccc3cnc(Nc4ccc(N5CCN(C(C)=O)CC5)cc4)nc32)C1 [Example 180] | A (A represents a value below 5×10^−6 cm/sec)
8 | C=CC(=O)N1CCN(CCn2c(=O)ccc3cnc(Nc4ccc(N5CCN(C(C)=O)CC5)cc4)nc32)[C@@H](CC)C1 [Example 185] | B (B represents a value between 5×10^−6 and 10×10^−6 cm/sec)
9 | C=CC(=O)N1CCN(CCn2c(=O)ccc3cnc(Nc4ccc(N5CCN(C(=O)COC)CC5)cc4)nc32)[C@@H](CC)C1 [Example 186] | A (A represents a value below 5×10^−6 cm/sec)

Biological target: JAK1 (Homo sapiens (Human), UniProt P23458)
Sequence (P23458 whole entry): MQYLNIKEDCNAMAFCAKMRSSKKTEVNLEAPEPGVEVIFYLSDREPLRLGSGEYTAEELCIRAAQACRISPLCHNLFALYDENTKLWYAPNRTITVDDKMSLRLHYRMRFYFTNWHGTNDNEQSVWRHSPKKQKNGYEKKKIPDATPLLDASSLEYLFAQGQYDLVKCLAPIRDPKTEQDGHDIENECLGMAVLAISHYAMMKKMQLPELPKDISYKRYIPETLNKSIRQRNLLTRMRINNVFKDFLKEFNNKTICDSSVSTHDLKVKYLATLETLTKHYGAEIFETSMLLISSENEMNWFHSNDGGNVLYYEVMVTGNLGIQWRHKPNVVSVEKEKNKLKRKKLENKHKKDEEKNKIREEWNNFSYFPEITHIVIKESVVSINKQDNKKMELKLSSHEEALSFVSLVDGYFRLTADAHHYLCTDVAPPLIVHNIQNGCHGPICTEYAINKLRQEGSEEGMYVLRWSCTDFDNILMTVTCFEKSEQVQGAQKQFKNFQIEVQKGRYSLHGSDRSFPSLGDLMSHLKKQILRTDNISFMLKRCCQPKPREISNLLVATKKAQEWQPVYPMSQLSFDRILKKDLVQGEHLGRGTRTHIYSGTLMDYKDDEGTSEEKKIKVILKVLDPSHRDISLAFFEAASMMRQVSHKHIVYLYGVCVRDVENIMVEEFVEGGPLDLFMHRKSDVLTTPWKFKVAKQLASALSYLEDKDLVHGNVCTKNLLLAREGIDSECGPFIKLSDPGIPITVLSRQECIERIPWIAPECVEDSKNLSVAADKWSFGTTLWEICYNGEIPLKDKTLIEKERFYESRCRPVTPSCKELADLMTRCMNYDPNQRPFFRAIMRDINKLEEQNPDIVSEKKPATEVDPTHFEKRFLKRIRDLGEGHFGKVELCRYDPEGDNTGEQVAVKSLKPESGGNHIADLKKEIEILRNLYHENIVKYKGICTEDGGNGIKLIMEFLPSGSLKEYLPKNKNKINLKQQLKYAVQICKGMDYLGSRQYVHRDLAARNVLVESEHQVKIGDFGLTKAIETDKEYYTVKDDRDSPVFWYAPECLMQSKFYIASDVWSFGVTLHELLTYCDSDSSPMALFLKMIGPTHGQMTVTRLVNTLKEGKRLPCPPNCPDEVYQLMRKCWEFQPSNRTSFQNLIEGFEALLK
Assay: Biochemical JAK1 kinase assay (LanthaScreen)
Details: not given
Procedure, shortened: as §1

Row | Structure (SMILES) | JAK 1 (pKi)
10 | C=CC(=O)N1CC(CC)(CCn2c(=O)ccc3cnc(Nc4ccc(N5CCN(C(C)=O)CC5)cc4)nc32)C1 [Example 180] | E (E represents a pKi value of 7 or below (Ki of 100 nM or above))
11 | C=CC(=O)N1CCN(CCn2c(=O)ccc3cnc(Nc4ccc(N5CCN(C(C)=O)CC5)cc4)nc32)[C@@H](CC)C1 [Example 185] | E (E represents a pKi value of 7 or below (Ki of 100 nM or above))
12 | C=CC(=O)N1CCN(CCn2c(=O)ccc3cnc(Nc4ccc(N5CCN(C(=O)COC)CC5)cc4)nc32)[C@@H](CC)C1 [Example 186] | E (E represents a pKi value of 7 or below (Ki of 100 nM or above))

System: IL-2 stimulated STAT5 phosphorylation in Tall-1 human T cell line (JAK3)
Assay: Cellular JAK3 potency assay: inhibition of IL-2 stimulated pSTAT5 in Tall-1 T cells
Assay type: cell-based
Details: IL-2 stimulated pSTAT5, Tall-1 T cells
Procedure, shortened: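 AlphaLISA SureFire Ultra measures STAT5 Tyr694/699 phosphorylation in lysed Tall-1 human T cells. Cells were exposed to compound for 1 h at 37 °C before a 30 min IL-2 challenge (300 ng/ml final). Values are pIC50 means with standard deviation from signal-versus-concentration curves.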

Row | Structure (SMILES) | Tall-1 (pIC50)
13 | C=CC(=O)N1CC(CC)(CCn2c(=O)ccc3cnc(Nc4ccc(N5CCN(C(C)=O)CC5)cc4)nc32)C1 [Example 180] | B (B represents a pC50 value between 6.7 (included) and 7.5 (IC50 between 200 nM and 32 nM))
14 | C=CC(=O)N1CCN(CCn2c(=O)ccc3cnc(Nc4ccc(N5CCN(C(C)=O)CC5)cc4)nc32)[C@@H](CC)C1 [Example 185] | B (B represents a pC50 value between 6.7 (included) and 7.5 (IC50 between 200 nM and 32 nM))
15 | C=CC(=O)N1CCN(CCn2c(=O)ccc3cnc(Nc4ccc(N5CCN(C(=O)COC)CC5)cc4)nc32)[C@@H](CC)C1 [Example 186] | B (B represents a pC50 value between 6.7 (included) and 7.5 (IC50 between 200 nM and 32 nM))

Biological target: JAK2 (Homo sapiens (Human), UniProt O60674)
Sequence (O60674 whole entry): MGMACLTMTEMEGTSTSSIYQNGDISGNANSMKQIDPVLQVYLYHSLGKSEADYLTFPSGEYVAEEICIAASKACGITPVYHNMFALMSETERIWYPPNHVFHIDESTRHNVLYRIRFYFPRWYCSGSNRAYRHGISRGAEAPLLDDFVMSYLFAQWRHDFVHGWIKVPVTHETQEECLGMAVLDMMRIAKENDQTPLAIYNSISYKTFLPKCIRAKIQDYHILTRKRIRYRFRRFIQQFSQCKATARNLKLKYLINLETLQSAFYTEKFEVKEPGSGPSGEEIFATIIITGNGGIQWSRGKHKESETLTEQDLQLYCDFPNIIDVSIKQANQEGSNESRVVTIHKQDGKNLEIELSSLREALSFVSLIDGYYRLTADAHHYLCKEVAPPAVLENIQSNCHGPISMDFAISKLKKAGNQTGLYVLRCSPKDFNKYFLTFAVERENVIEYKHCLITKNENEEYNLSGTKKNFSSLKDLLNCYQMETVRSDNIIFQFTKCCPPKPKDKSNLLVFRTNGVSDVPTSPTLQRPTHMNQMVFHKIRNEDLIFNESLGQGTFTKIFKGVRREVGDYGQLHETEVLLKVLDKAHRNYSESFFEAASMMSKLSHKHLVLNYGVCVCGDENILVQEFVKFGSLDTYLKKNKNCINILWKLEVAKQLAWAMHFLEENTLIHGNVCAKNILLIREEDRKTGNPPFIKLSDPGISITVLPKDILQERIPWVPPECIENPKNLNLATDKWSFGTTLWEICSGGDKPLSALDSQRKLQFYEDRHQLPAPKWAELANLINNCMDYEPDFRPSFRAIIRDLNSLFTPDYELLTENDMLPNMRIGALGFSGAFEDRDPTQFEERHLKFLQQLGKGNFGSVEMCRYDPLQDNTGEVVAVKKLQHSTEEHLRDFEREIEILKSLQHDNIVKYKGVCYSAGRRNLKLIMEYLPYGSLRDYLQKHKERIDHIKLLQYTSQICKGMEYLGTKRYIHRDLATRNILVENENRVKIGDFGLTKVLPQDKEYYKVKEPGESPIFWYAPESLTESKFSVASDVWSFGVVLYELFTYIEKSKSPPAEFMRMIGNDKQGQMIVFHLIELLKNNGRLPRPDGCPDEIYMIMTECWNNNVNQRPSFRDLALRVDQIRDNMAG
Assay: Biochemical JAK2 kinase assay (LanthaScreen)
Details: not given
Procedure, shortened: as §1

Row | Structure (SMILES) | JAK 2 (pKi)
16 | C=CC(=O)N1CC(CC)(CCn2c(=O)ccc3cnc(Nc4ccc(N5CCN(C(C)=O)CC5)cc4)nc32)C1 [Example 180] | E (E represents a pKi value of 7 or below (Ki of 100 nM or above))
17 | C=CC(=O)N1CCN(CCn2c(=O)ccc3cnc(Nc4ccc(N5CCN(C(C)=O)CC5)cc4)nc32)[C@@H](CC)C1 [Example 185] | E (E represents a pKi value of 7 or below (Ki of 100 nM or above))
18 | C=CC(=O)N1CCN(CCn2c(=O)ccc3cnc(Nc4ccc(N5CCN(C(=O)COC)CC5)cc4)nc32)[C@@H](CC)C1 [Example 186] | E (E represents a pKi value of 7 or below (Ki of 100 nM or above))

Biological target: Tyk2 (Homo sapiens (Human), UniProt P29597)
Sequence (P29597 whole entry): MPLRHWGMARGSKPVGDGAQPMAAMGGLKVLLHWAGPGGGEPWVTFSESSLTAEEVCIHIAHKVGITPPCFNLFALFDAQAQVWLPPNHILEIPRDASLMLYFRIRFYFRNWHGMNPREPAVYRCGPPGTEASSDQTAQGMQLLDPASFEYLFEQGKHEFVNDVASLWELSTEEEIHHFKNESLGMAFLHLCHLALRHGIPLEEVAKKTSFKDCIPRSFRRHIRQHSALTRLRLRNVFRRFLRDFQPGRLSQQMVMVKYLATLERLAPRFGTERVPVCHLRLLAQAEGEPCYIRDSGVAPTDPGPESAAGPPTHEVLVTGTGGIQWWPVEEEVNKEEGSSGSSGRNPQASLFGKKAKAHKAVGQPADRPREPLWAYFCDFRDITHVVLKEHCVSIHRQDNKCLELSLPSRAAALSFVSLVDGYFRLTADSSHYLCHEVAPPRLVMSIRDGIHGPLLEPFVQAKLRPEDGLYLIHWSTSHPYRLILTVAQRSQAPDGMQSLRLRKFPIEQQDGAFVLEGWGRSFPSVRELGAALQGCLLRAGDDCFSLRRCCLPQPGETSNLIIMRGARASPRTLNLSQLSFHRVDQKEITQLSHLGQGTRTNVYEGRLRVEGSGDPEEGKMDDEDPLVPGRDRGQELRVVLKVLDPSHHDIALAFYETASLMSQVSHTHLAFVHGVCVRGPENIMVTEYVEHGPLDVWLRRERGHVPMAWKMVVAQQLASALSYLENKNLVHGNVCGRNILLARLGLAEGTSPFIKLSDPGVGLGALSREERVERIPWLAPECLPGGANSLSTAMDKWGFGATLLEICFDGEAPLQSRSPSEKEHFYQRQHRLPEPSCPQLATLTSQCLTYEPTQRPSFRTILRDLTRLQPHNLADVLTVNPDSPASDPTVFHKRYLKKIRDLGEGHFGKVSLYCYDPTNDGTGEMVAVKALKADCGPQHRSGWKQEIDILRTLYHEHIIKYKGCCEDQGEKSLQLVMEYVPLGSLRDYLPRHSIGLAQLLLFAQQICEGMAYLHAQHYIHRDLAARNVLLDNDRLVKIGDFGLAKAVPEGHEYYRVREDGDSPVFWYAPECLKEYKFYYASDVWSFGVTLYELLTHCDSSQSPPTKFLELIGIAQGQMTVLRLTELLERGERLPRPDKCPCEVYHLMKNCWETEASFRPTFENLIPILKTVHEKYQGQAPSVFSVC
Assay: Biochemical Tyk2 kinase assay (LanthaScreen)
Details: not given
Procedure, shortened: as §1

Row | Structure (SMILES) | Tyk 2 (pKi)
19 | C=CC(=O)N1CC(CC)(CCn2c(=O)ccc3cnc(Nc4ccc(N5CCN(C(C)=O)CC5)cc4)nc32)C1 [Example 180] | E (E represents a pKi value of 7 or below (Ki of 100 nM or above))
20 | C=CC(=O)N1CCN(CCn2c(=O)ccc3cnc(Nc4ccc(N5CCN(C(C)=O)CC5)cc4)nc32)[C@@H](CC)C1 [Example 185] | E (E represents a pKi value of 7 or below (Ki of 100 nM or above))
21 | C=CC(=O)N1CCN(CCn2c(=O)ccc3cnc(Nc4ccc(N5CCN(C(=O)COC)CC5)cc4)nc32)[C@@H](CC)C1 [Example 186] | E (E represents a pKi value of 7 or below (Ki of 100 nM or above))
